How the values were obtained:
[1] = molecular target: T1, Tyrosine-protein phosphatase non-receptor type 22 (Homo sapiens, UniProt Q9Y2R2); assay: Inhibition of His-tagged LYP (unknown origin) expressed in Escherichia coli BL21 cells using para-nitrophenyl phosphate as substrate incubated for 5 to 10 mins by microplate reader based spectrophotometric analysis
T1 sequence (Q9Y2R2 whole entry): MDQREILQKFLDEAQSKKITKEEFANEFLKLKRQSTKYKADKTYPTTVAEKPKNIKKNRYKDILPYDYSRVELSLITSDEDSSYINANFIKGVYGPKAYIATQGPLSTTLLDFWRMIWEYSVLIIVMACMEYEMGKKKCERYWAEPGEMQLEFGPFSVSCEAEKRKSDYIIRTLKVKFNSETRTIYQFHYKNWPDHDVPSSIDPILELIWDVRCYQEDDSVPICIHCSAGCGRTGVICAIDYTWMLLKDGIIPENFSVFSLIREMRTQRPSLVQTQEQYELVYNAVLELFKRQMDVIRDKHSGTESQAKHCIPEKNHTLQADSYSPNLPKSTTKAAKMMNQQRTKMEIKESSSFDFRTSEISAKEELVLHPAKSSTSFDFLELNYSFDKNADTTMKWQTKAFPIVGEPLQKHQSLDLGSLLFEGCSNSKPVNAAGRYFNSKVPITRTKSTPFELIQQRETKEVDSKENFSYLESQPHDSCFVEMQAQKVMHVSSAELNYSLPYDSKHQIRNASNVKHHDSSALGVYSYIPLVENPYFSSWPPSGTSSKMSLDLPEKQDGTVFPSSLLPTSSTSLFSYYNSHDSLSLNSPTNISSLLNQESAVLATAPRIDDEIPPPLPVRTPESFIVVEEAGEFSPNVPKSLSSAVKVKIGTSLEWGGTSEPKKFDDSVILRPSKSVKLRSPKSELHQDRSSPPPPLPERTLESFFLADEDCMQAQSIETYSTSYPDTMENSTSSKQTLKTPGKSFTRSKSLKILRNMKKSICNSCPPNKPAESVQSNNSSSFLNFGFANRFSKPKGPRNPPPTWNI

[2] = molecular target: Receptor-type tyrosine-protein phosphatase F (Homo sapiens, UniProt P10586); assay: Inhibition of His-tagged LAR (unknown origin) expressed in Escherichia coli BL21 cells using para-nitrophenyl phosphate as substrate incubated for 5 to 10 mins by microplate reader based spectrophotometric analysis
[3] = molecular target: T2, Tyrosine-protein phosphatase non-receptor type 7 (Homo sapiens, UniProt P35236); assay: Inhibition of His-tagged HePTP (unknown origin) expressed in Escherichia coli BL21 cells using para-nitrophenyl phosphate as substrate incubated for 5 to 10 mins by microplate reader based spectrophotometric analysis
T2 sequence (P35236 whole entry): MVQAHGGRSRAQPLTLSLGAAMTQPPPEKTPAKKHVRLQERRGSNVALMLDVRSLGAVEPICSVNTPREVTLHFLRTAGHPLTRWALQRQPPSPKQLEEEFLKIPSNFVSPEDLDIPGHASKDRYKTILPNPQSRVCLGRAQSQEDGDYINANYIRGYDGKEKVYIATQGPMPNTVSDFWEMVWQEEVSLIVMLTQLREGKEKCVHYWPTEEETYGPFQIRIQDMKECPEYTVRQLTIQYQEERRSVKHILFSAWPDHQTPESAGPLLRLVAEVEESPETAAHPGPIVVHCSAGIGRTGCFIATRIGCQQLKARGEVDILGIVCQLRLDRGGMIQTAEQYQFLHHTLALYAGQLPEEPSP

[4] = molecular target: Dual specificity protein phosphatase 3 (Homo sapiens, UniProt P51452); assay: Inhibition of His-tagged VHR (unknown origin) expressed in Escherichia coli BL21 cells using para-nitrophenyl phosphate as substrate incubated for 5 to 10 mins by microplate reader based spectrophotometric analysis
[5] = molecular target: Receptor-type tyrosine-protein phosphatase S (Homo sapiens, UniProt Q13332); assay: Inhibition of His-tagged PTPsigma (unknown origin) expressed in Escherichia coli BL21 cells using para-nitrophenyl phosphate as substrate incubated for 5 to 10 mins by microplate reader based spectrophotometric analysis
[6] = molecular target: T3, Dual specificity protein phosphatase 6 (Homo sapiens, UniProt Q16828); assay: Inhibition of His-tagged MKP3 (unknown origin) expressed in Escherichia coli BL21 cells using para-nitrophenyl phosphate as substrate incubated for 5 to 10 mins by microplate reader based spectrophotometric analysis
T3 sequence (Q16828 whole entry): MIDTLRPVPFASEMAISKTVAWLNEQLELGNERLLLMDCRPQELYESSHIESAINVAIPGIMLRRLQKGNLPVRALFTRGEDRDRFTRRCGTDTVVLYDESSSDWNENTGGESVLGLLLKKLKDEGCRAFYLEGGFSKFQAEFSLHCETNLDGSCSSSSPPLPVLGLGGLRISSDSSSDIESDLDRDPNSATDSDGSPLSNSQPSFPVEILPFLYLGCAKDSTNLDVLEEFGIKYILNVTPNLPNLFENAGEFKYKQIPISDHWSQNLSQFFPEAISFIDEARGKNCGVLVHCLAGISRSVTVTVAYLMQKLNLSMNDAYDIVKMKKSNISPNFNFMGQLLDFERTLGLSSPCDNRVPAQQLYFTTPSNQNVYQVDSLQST

Chain of Receptor-type tyrosine-protein phosphatase F (P10586 whole entry): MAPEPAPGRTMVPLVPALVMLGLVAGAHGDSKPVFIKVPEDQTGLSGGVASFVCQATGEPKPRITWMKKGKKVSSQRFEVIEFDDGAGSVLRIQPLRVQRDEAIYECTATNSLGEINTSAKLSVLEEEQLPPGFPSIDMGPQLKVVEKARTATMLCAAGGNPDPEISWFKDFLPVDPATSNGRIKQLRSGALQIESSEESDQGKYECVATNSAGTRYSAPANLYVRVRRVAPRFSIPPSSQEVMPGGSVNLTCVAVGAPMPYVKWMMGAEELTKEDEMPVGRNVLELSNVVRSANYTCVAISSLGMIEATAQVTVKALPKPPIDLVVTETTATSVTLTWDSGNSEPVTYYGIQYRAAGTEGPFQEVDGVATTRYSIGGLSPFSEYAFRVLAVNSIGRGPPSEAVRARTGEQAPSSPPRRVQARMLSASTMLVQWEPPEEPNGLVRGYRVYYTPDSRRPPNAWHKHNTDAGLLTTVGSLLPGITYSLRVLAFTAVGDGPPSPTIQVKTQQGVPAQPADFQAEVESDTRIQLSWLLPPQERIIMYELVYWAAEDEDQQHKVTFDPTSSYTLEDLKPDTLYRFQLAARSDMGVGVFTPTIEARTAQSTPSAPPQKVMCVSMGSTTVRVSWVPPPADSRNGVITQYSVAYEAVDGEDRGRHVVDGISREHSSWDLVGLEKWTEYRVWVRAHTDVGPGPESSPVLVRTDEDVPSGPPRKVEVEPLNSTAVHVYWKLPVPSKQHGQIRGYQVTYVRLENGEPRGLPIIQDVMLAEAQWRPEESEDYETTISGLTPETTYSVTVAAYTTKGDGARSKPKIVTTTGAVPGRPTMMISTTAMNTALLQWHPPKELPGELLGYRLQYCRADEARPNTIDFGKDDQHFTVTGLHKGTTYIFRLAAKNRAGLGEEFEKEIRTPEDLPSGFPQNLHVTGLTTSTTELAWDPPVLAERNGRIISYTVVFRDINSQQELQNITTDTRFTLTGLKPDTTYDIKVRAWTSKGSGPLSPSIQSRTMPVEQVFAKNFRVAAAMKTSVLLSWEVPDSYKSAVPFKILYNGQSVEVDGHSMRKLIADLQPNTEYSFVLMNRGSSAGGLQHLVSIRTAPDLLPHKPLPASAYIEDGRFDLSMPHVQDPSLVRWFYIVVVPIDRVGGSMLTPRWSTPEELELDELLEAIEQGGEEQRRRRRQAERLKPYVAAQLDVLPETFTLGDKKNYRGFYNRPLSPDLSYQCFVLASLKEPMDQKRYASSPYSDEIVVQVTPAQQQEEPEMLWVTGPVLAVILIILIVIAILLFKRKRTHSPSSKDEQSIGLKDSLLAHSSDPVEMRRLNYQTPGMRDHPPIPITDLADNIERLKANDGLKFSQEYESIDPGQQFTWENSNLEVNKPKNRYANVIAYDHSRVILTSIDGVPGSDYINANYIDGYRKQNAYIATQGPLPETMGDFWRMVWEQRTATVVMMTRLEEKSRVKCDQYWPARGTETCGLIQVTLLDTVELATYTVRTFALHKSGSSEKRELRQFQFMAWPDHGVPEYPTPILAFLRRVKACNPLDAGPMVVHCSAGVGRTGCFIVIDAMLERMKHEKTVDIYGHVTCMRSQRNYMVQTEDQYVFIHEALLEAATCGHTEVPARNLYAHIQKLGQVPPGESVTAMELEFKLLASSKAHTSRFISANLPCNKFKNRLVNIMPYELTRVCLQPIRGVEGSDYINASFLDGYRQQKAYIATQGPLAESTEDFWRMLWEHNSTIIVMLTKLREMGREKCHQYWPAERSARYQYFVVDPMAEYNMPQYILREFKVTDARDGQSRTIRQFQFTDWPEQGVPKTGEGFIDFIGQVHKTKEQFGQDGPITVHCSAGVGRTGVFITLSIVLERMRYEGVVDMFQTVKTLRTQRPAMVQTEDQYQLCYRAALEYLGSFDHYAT
Chain of Receptor-type tyrosine-protein phosphatase S (Q13332 whole entry): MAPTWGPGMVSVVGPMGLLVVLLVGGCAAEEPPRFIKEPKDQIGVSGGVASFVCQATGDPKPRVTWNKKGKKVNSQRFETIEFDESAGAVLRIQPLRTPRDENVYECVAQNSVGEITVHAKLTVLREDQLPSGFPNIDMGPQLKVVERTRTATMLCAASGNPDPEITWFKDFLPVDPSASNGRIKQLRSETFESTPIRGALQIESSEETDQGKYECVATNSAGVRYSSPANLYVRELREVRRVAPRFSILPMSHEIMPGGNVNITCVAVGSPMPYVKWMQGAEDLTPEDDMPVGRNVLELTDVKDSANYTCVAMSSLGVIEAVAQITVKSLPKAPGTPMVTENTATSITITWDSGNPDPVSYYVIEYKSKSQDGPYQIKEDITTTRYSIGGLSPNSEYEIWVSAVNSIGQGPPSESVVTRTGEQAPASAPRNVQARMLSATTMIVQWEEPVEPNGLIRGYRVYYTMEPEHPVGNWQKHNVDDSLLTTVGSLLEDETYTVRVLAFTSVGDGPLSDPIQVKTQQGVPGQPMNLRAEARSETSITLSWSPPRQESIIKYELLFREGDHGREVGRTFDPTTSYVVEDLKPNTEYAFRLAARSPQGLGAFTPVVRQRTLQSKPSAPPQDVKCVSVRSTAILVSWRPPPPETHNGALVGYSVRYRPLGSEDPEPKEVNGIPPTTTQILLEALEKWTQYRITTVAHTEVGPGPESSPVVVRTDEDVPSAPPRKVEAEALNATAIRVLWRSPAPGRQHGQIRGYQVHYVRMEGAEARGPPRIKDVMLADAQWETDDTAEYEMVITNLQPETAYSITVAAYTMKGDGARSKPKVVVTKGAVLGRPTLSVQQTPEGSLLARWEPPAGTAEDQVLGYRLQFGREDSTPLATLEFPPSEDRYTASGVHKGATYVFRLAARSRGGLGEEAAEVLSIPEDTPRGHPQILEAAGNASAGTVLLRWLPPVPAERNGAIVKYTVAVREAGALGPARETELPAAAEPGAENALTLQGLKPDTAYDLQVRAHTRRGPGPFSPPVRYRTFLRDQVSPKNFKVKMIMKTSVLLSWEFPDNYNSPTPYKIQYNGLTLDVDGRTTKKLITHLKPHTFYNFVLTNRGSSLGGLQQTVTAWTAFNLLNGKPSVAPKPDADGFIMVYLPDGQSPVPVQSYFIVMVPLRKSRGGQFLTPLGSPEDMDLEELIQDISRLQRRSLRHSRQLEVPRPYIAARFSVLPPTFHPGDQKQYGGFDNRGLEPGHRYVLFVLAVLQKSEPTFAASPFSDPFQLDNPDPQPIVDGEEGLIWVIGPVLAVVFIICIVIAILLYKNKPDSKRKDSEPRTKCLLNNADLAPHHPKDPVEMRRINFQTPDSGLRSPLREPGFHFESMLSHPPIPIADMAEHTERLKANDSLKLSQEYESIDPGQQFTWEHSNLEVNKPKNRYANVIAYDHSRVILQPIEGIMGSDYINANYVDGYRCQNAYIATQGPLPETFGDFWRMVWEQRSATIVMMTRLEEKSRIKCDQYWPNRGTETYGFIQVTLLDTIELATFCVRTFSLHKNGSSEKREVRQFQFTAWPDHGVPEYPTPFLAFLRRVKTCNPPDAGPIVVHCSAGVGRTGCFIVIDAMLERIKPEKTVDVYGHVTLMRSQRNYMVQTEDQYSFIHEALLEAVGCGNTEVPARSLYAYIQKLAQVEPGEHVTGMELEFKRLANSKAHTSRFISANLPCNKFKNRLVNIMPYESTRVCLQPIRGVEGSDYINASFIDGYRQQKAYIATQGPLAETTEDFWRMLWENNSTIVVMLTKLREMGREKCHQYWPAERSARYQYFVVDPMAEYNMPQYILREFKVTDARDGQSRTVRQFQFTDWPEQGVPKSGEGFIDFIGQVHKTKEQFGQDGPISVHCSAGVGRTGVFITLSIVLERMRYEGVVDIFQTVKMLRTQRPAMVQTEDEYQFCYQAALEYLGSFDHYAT
Chain of Dual specificity protein phosphatase 3 (P51452 whole entry): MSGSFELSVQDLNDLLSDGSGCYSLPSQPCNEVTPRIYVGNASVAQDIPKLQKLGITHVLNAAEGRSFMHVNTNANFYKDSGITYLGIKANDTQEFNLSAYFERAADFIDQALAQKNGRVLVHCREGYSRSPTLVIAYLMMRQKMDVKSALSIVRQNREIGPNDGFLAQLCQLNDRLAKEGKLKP

| SMILES | IC50 [1] | IC50 [2] | IC50 [3] | IC50 [4] | IC50 [5] | IC50 [6] |
| --- | --- | --- | --- | --- | --- | --- |
| O=C(Nc1cc(C(F)(F)F)cc(C(F)(F)F)c1)C(c1ccccc1)S(=O)(=O)O (stereo not drawn) | > 200 µM | > 200 µM | 94 µM | > 200 µM | > 200 µM | > 200 µM |
| O=C(Nc1ccc(-n2ccnc2)cc1)C(c1ccccc1)S(=O)(=O)O (stereo not drawn) | > 100 µM | > 100 µM | > 100 µM | > 100 µM | > 100 µM | > 100 µM |
| O=C(Nc1ccc(OCc2ccccc2)c(Cl)c1)C(c1ccccc1)S(=O)(=O)O (stereo not drawn) | – | > 200 µM | > 200 µM | – | > 200 µM | > 200 µM |
| Cc1c(Br)cc(NC(=O)C(c2ccccc2)S(=O)(=O)O)cc1Br (stereo not drawn) | > 200 µM | > 200 µM | > 200 µM | > 200 µM | > 200 µM | > 200 µM |
| O=C(Nc1nc2ccc([N+](=O)[O-])cc2s1)C(c1ccccc1)S(=O)(=O)O (stereo not drawn) | > 100 µM | > 100 µM | > 100 µM | > 100 µM | > 100 µM | > 100 µM |

From ChEMBL document CHEMBL4715770, “Inhibition of Low Molecular Weight Protein Tyrosine Phosphatase by an Induced-Fit Mechanism” (J Med Chem, 2016)
